# According to US20240066006A1, “Antiviral Compounds and Applications Thereof” (priority 2020, published 2024):
# Like-named read-outs stand apart in the source and are kept apart here.
# What was measured:
# MHV-1 [1] = assay: Syncytium formation in DBT cells infected with MHV-1 (microscopy images); format: cell-based, murine hepatitis virus; details: for inhibitory effect on syncytium formation and fusion / inhibitory effect on syncytium formation and cell-cell fusion: DBT cells pre-treated three hours, 893 10 μM, images at 48 hours; for inhibitory effect on syncytium formation and fusion: YM201636 400 nM, apilimod 50 nM; for inhibitory effect on syncytium formation and cell-cell fusion: NAV2729 5 μM, SecinH3 30 μM; for syncytium formation induced by MHV-1: DBT cells, 4 μM
# ACE2 receptor = format: cell-based; details: pre-treated VeroE6 cells
# Serum protein binding = format: in vitro ADME
# MHV-A59 [2] = format: cell-based, murine hepatitis virus; details: DBT cells, MOI 0.1, plaque assay at 24 or 48 hours
# [3] = Pharmacokinetics and tissue levels upon oral administration
# [4] = test system: endolysosomal trafficking; assay: Inhibition of endolysosomal trafficking in vitro; format: cell-based
# [5] = in vivo
# MHV-1 [6] = assay: Viral titer by plaque assay, DBT cells infected with MHV-1; format: cell-based, murine hepatitis virus
# MHV-A59 [7] = assay: Syncytium formation in DBT cells infected with MHV-A59 (phase contrast microscopy); format: cell-based, murine hepatitis virus; details: 4 μM, MOI 0.1, 24 hours post infection
# Method: To determine whether PP2A activation mitigates syncytium formation induced by coronaviruses, DBT cells were treated with 4 μM of compound 893 before or after infection with MHV-A59 at a multiplicity of infection (MOI) of 0.1 and then assessed for syncytium formation via phase contrast microscopy 24 hours post infection.
# in vivo = details: po
# MHV-1 [8] = assay: MHV-1 intranasal infection of male A/J mice, lung viral titer and lung weight; details: 120 mg/kg by gavage 6 hours prior to and 18 hours after infection, 500 pfu MHV-1 intranasally, 24 hours post-infection
# [9] = after viral infection (post-treatment)
# [10] = DBT cells pre-treated three hours, 893 10 μM, NAV2729 5 μM, SecinH3 30 μM, plaque assay 48 hours post infection
molecule,measurement,setting,value
Nc1ccc(C(=O)Nc2cccc(-c3nc(N4CCOCC4)c4oc5ncccc5c4n3)c2)cn1 [YM201636],inhibitory effect on syncytium formation and fusion,MHV-1 [1],inhibitory effect
Cc1cccc(/C=N/Nc2cc(N3CCOCC3)nc(OCCc3ccccn3)n2)c1 [apilimod],inhibitory effect on syncytium formation and fusion,MHV-1 [1],inhibitory effect
CCCCCCCCc1ccc([C@H]2CCN[C@@H]2CO)cc1.Cl [compound 893],ACE2 receptor localization at the outer cell membrane,ACE2 receptor,reduction of ACE2 receptor localization at the outer cell membrane
same,binding by serum proteins,Serum protein binding,highly bound by serum proteins
same,resistance to metabolism,Resistance to metabolism,resistant to metabolism
same,reduction of viral titers of MHV-A59,MHV-A59 [2]; 4-5 μM added one hour after infection,3-4 logs
same,reduction of viral titers of MHV-A59,"MHV-A59 [2]; 4-5 μM for three hours prior to infection, washed 1 hour after infection",3-4 logs
same,total drug levels in the lungs relative to concentration required in vitro,[3]; compared with 1-10 μM required in vitro,300 fold
same,concentration at 5 days,"[3]; lungs, brain, liver (many tissues), po, 120 mg/kg",> 100 µM
same,inhibitory effect on syncytium formation and cell-cell fusion,MHV-1 [1],inhibitory effect
same,inhibitory effect on syncytium formation and fusion,MHV-1 [1],greater for 893 than for YM201636 or apilimod
same,syncytium formation induced by MHV-1,MHV-1 [1]; [9],potently prevented syncytium formation
same,syncytium formation induced by MHV-1,MHV-1 [1]; pre-treatment,potently prevented syncytium formation
same,concentration required to inhibit endolysosomal trafficking,[4],1 to 10 µM
same,oral bioavailability,[5],orally bioavailable
same,reduction of viral titers of MHV-1,MHV-1 [6]; [10],~3 log
same,reduction of viral titers of MHV-1,"MHV-1 [6]; DBT cells pre-treated three hours, 893 10 μM, YM201636 400 nM, apilimod 50 nM, plaque assay 48 hours post infection",~3 logs
same,reduction of viral titers of MHV-1,"MHV-1 [6]; DBT cells, 4-5 μM added one hour after infection, MOI 0.1, plaque assay at 24 or 48 hours",3-4 logs
same,reduction of viral titers of MHV-1,"MHV-1 [6]; DBT cells, 4-5 μM for three hours prior to infection, MOI 0.1, washed 1 hour after infection, plaque assay at 24 or 48 hours",3-4 logs
same,syncytium formation induced by MHV-A59,MHV-A59 [7]; [9],potently prevented syncytium formation
same,syncytium formation induced by MHV-A59,MHV-A59 [7]; pre-treatment,potently prevented syncytium formation
same,half-life,in vivo,10.6 h
same,lung weight,MHV-1 [8],reduced lung weight
same,reduction in infectious virus within the lungs,MHV-1 [8],2 log
"OCCN1CCN(CCCN2c3ccccc3Sc3ccc(Cl)cc32)CC1 [PPZ, perphenazine, reference compound]",syncytium formation and fusion,"MHV-1 [1]; DBT cells infected with MHV-1, pretreatment with PP2A agonist",as efficiently as compound 893
same,reduction of viral titers of MHV-1,"MHV-1 [6]; DBT cells, pretreatment with PP2A agonist",to a degree similar to that of compound 893
"COc1nc(-c2ccc3c(c2)OCO3)n(-c2ccc(NC(=O)CSc3ccccc3)cc2)n1 [SecinH3, reference compound]",inhibitory effect on syncytium formation and cell-cell fusion,MHV-1 [1],inhibitory effect
same,reduction of viral titers of MHV-1,MHV-1 [6]; [10],about 1 log
NAV2729 [reference compound],inhibitory effect on syncytium formation and cell-cell fusion,MHV-1 [1],inhibitory effect
same,reduction of viral titers of MHV-1,MHV-1 [6]; [10],about 1 log
